From a melting point compilation (Tetko et al.; mined from patent text by program, amines drawn as free bases though some values may be those of a salt)

| melting point [°C] | Compound |
| --- | --- |
| 290 | Cc1cc(-c2ccc(C(F)(F)F)cc2)cn2c(-c3nc(-c4ccc(S(N)(=O)=O)cc4)no3)cnc12 |
| > 280 | N#Cc1c2c(cc3ccc(O)cc13)-c1ccc(O)cc1CO2 |
| 86 to 89 | COc1cc(C=CC(=O)OCCCCBr)ccc1O |
| 128 to 130 | OC(CCc1cccnc1)CSc1ccc(-c2ccccc2)cc1 (stereo not given) |
| 71 | CCCCS(=O)(=O)ON=C(C#N)c1ccc(OC)cc1 |
| 100 to 105 | CC(C)(C)OC1CCC(C(=O)O)CC1 (stereo not given) |
| 176 to 177 | CCOC(=O)COc1ccc(SCc2ccc3nc(-c4ccc(C(F)(F)F)cc4)sc3c2)cc1C |
| 107 to 109 | COC(=O)C1(N(OC2CCCO2)C(=O)Cc2c(C)cc(C)cc2C)CCN(OC)CC1 (stereo not given) |
| 325 | Cc1nnc(N2CCN(C=O)CC2)c2cc3ccccn3c12 |
| 223 to 224 | CC(=O)c1cc(C(C)=O)cc(N(C(C)=O)C(=O)Nc2ccccc2)c1 |
| 54 to 55 | CCOC(=O)c1cnoc1-c1ccc(OC)cc1 |
| 106 to 107 | O=C1c2ccccc2C(=O)N1CCc1ccc(F)cc1 |
| 117 to 120 | C=CS(=O)(=O)Nc1c(C)cc(C)cc1C |
| 201 to 203 | CCCC12CCC(=O)C=C1c1c(cc(CCC(=O)O)c(Cl)c1Cl)C2 (stereo not given) |
| 182 to 184 | CN1C(=O)C2(COc3cc4c(cc32)OCCO4)c2c(NC(=O)C(C)(C)C)cccc21 (stereo not given) |
| 238 | O=C(N[C@@H](Cc1ccc(-c2c(O)cccc2O)cc1)C(=O)O)c1c(Cl)cccc1Cl |
| 117 to 119 | O=C(O)CCc1ccc(-c2cccc(-c3ccnc4c(C(=O)c5cccs5)cnn34)c2)cc1 |
| 129 to 131 | CCCC(CCC)c1ccc(CN(C)c2ccc(-c3coc(CN(CC(=O)O)Cc4ccccc4)n3)cc2)cc1 |
| 171 to 173 | O=C1NCCc2c(OCc3ccccc3)cccc21 |
| 103 to 106 | CC(=O)C=Cc1ccc(C#N)cc1 |
| 107 to 108 | CN(C)C(=O)N(C)c1nc2cc(C(C)(C)C)ccc2s1 |
| 211 to 213 | CCOC(=O)c1nn(-c2ccc(NC)cc2)c(=O)c2c(N)scc12 |
| 194 to 199 | CCCN(CCN1CCN(C(=O)c2ccc3[nH]ccc3c2)CC1)C1CCc2ccc(O)cc2C1 (stereo not given) |
| 100 to 101 | Nc1ccccc1N1CCN(CCCOc2cccc3c2CCCC3)CC1 |

| melting point [°C] | Compound |
| --- | --- |
| 174 | O=C(O)CCCc1cc2nc(Cl)ccc2n1S(=O)(=O)c1ccc(Cl)cc1 |
| 208 to 210 | Fc1ccc(/C=C/C2=CCN(Cc3c[nH]c4ncccc34)CC2)cc1F |
| 198 to 201 | CC(C)(C)OC(=O)NC1Cc2ccc(NC(=O)c3ccccc3-c3ccc(C(F)(F)F)cc3)cc2C1 (stereo not given) |
| 153 to 154 | COc1cc(OC)c(C2CCN(C)CC2OC(C)=O)c(Oc2cccs2)c1C(C)=O (stereo not given) |
| 120 to 122 | COCN1C(=O)COc2ccc([N+](=O)[O-])cc21 |
| 175 to 185 | CCOC(=O)c1cc(NC(=O)C(Cc2ccc(Cl)c(Cl)c2)NC(=O)OC(C)(C)C)c[nH]1 (stereo not given) |
| 226 to 228 | CCOC(=O)c1nc(N)sc1-c1nc2cc(C)ccn2c1C |
| 115 to 125 | COC1=CC2=CCC3C(CCC4(C)C(C5=NC(OCc6ccccc6)OC5)=CCC34)C2(C)CC1 (stereo not given) |
| 210 | COc1ccc2nc(SCc3nccc(N4CCOCC4)c3Cl)[nH]c2n1 |
| 301 to 302 | CC1(C)Cc2cc(C3=NNC(=O)C4CCC34)ccc2NC1=O (stereo not given) |
| 214 to 215 | CC1(C)OC(=O)Nc2ncc(-c3cccc(Cl)c3)cc21 |
| 40 to 42 | CCN(CC)C(=O)c1ccc(OC)cc1 |
| 226 | CCOC(=O)c1ccc(-c2cnc3c(c2)N(Cc2c(Cl)cccc2Cl)C(=O)CN3)cc1 |
| 165 to 166 | CCc1cccc2c1nc(-c1c(F)cccc1F)n2Cc1c(F)cccc1F |
| 216 to 220 | COc1ccccc1-c1cc2c(c(Br)cn2C)c2c1C(=O)NC2=O |
| 64.5 to 65.5 | c1ccc(-c2cc3cccc(CSCCN4CCCCC4)c3o2)cc1 |
| 152 to 153 | COc1ccc(Cl)cc1C(=O)N(C)CCc1ccc(CCC(=O)O)cc1 |
| 182 to 183 | CC(=O)N(CCOc1cccc2ccccc12)c1ccc(C(=O)O)cc1 |
| 262 | O=C(NN=Cc1cccc(C(F)(F)F)c1Cl)c1ccc(O)cc1 |
| 200 to 202 | CN1C(=O)CCC2(C)c3ccc(CC(=O)O)cc3CCC12 (stereo not given) |
| 166 to 167 | COc1nc(Br)cnc1NS(=O)(=O)c1cccc2c(N(C)C)cccc12 |
| 207 to 210 | CN1CCN(c2ncnc3c([N+](=O)[O-])cccc23)C1=O |
| 190 to 191 | C[Si](C)(C)N1CCN(N=Cc2ccccc2)C(=O)C1=O |
| 98 to 100 | O[C@@H]1CN(Cc2ccccc2)C[C@H]1Oc1ccc(OCc2ccccc2)cc1 (relative stereo) |

| melting point [°C] | Compound |
| --- | --- |
| 172 to 174 | Cn1nccc1CCS(=O)Cc1ccc(OCc2coc(/C=C/c3ccc(C(F)(F)F)cc3)n2)cc1 (stereo not given) |
| 256 to 259 | O=c1[nH]c2ccccc2cc1CN1CCN(c2ccc(Cl)cc2)CC1 |
| 119 to 121 | Cc1c(Cl)cccc1C(=N)NO |
| 124 | O=C(NCCOc1cccc2c1OCC(CO)O2)c1ccc(F)cc1 (stereo not given) |
| 211 to 212 | O=c1c2cc(CBr)ccc2oc2ncccc12 |
| 218 to 220 | Cn1c(COc2nn3c(-c4ccccc4F)nncc3c2-c2ccccc2F)nc2ccccc21 |
| 150 to 160 | O=C(O)c1csnc1-c1cc(S)cc(Cl)c1 |
| 264 to 266 | O=C(Nc1nnn[nH]1)c1ccccc1O |
| 98 to 99 | c1ccc2c3c([nH]c2c1)C(c1ccc2c(c1)CCO2)NCC3 (stereo not given) |
| 184 to 185 | Cc1cccc(C)c1NC(=O)CN1CCNC(C)C1c1ncnc2sccc12 (stereo not given) |
| 122 | Cc1nc2c(O[C@@H]3c4ccccc4C[C@H]3O)cc(C(=O)N(C)C)cn2c1C (relative stereo) |
| 205 to 207 | COC(=O)C1=C(C)NC(C)=C(P(=O)(OC(C)C)OC(C)C)C1c1cccc([N+](=O)[O-])c1 (stereo not given) |
| 103 to 104 | Cc1nn(-c2c(Cl)cc(C(F)(F)F)cc2Cl)nc1CC#N |
| 302 | O=c1[nH]nc(-c2cccc([N+](=O)[O-])c2)c2ncccc12 |
| 131 to 133 | c1cnc2ccc(Cn3nnc4ccc(-c5ccc6c(c5)CCO6)nc43)cc2c1 |
| 92 to 94 | CCCN(CC(O)COc1ccc2c(=O)cc(-c3ccccc3)oc2c1)C(=O)OCc1ccccc1 (stereo not given) |
| > 70 | CC(=O)OCc1cccc(NC(=O)c2nnn(Cc3ccc(Cl)c(Cl)c3)c2C)c1 |
| 85 to 87 | COc1ccc2ccc(C(O)C(F)(F)F)cc2c1 (stereo not given) |
| 95 | Cc1cccc(NC(=O)c2cc(Cl)cc(C)n2)c1 |
| 118 to 119 | CCOC(=O)Nc1ccccc1NS(=O)(=O)c1ccc(OC)cc1 |
| 188 to 190 | O=C(Cc1ccc(O)c2[nH]ncc12)NCc1ccccc1 |
| 136 to 138 | C/C(C=O)=C\COc1cccc(O)c1 |
| 72 to 74 | COc1ccc(-c2cccc(-c3nc(C(C)C)[nH]c3-c3cccc(C)n3)c2)cn1 |
| 233 to 234 | N#CCc1c[nH]c2ccc(NC(=O)NC3CCCCC3)cc12 |

| melting point [°C] | Compound |
| --- | --- |
| 160 to 162 | COC(=S)NCc1cn(-c2ccc(-n3ccc(C=O)c3)cc2)nn1 |
| 98 to 99 | CC(=O)c1cc(CO)c(OCCCCC#N)cc1OCCCCC#N |
| 231 to 233 | Cc1nc2c(cc1C(=O)NC(=N)N)CCCCC2COS(=O)(=O)O (stereo not given) |
| 283 to 285 | CC(=O)N1CCC[C@H]1C(=O)Nc1ccc(S(N)(=O)=O)cc1 |
| 126 | COc1cc(N)c(Cl)cc1C(=O)NC1CCN(CCCOc2ccc(F)cc2)CC1(F)F (stereo not given) |
| 224 to 226 | O=C(O)CCc1cc2c(c(Br)c1Br)OCC2 |
| 115 to 116 | CC(C)CC(C(=O)O)c1cc(Cl)c(-c2ccc(C(F)(F)F)cc2)c(OCC2CC2)c1 (stereo not given) |
| 190 to 193 | O=C(Cc1cccc(O)c1)NNC(=O)c1ccc(O)c([N+](=O)[O-])c1 |
| 165 to 166 | CC(C)(C)CN1C(=O)C(=O)N(c2ccc(F)cc2)C1=S |
| 145 to 147 | COc1ccc(-n2cnc3ccc(-c4nnc(CCc5cccc(F)c5)o4)cc32)cc1 |
| 206 to 207 | Cc1c(NC(=O)CC(C)(C)C)c(C)c2c(c1-c1cccc(N3CCCC3)c1)OCC2c1ccc(C(C)C)cc1 (stereo not given) |
| 123 to 126 | CC(=O)N(C1=C(NC(C)C)C(=O)c2c(cnn2C)C1=O)C(C)C |
| 185 to 186 | CNS(=O)(=O)c1cc2ccccc2cc1CC(=O)O |
| 216 to 218 | N#CCc1c[nH]c2ccc(NC(=O)c3ccc[nH]3)cc12 |
| 253 to 255 | CNCC1CN(c2c(F)cc3c(=O)c(C(=O)O)cn(C4CC4)c3c2Cl)CC1C (stereo not given) |
| 108 to 109 | CNC(=O)CC1CSc2c(C(=O)OC(C)C)c(C)cn21 (stereo not given) |
| > 300 | COc1cc2nc(N3CCc4c(cccc4-c4cnccc4N)C3)[nH]c(=O)c2cc1OC |
| 142 to 143 | c1ccc2c(c1)Sc1ccccc1C1=C2CCNCC1 |
| 93 | O=C1c2ccccc2C(=S)N1C1CC=CCC1 (stereo not given) |
| 111 to 115 | CC(=O)OC1(N=NC2(OC(C)=O)CC(C)CC(C)(C)C2)CC(C)CC(C)(C)C1 (stereo not given) |
| 99 to 100 | Cc1ccc(Cc2cnc(CCCOc3cc(CN4CCCCC4)ccn3)[nH]c2=O)cn1 |
| 196 to 198 | COc1cc(Cl)nc(NC(=O)NS(=O)(=O)c2ccccc2OC(Cl)=CCl)n1 |
| 275 to 278 | Cc1cc(C)cc(-c2nc(NC(=O)C3CCCC3)sc2-c2ccncc2)c1 |

| Compound | melting point [°C] |
| --- | --- |
| CCC(=O)Nc1cccc(-c2ccnc3c(C(=O)c4ccccc4)cnn23)c1 | 172 to 174 |
| CC(C)N(Cc1cnc(-c2ncn3c2CN(C)C(=O)c2cc(F)ccc2-3)o1)C(C)C | 176 to 178 |
| CC(=O)c1ccc(OCC(C)(O)C(=O)Nc2ccc([N+](=O)[O-])c(C)c2)cc1 (stereo not given) | 153 to 155 |
| CN1CCN2c3ccc([N+](=O)[O-])cc3C(c3cccs3)=NCC2C1 (stereo not given) | 174 to 175 |
| CC1(C)C(C=C(Cl)Cl)C1C(=O)OC(c1cccc(Oc2ccc(F)cc2)n1)C(F)(F)F (stereo not given) | 69 to 72 |
